Entries after “also recorded” stand apart in the source; their conditions may differ.
Test system: hEGFR
Assay: hEGFR dose titration in HT-29 cells (electroporation, hEGFR ELISA)
Type: cell-based, human
Settings: 0.01-10 ug siRNA per 2×10^6 cells/200 μl, 48 hours post transfection
Experimental: The selected hEGFR-siRNA, hEGFR-25-1 and hEGFR-25-2, were tested for their capability of inhibiting hEGFR expression in a dose-dependent manner. The HT-29 cells were transfected with the EGFR-siRNAs in a range of 0.01-10 ug siRNA per 2×10^6 cells/200 μl using an electroporation mediated transfection method. The concentration of EGFR protein in the transfected HT-29 cells was measured at 48 hours post transfection using a hEGFR ELISA kit (R&D Systems, Inc.). The concentration of hEGFR protein was normalized against total cellular protein and the percentage of hEGFR inhibition was normalized against cells treated with a mock process without siRNA.
Two siRNA candidates, hEGFR-25-1 and hEGFR-25-2, were further tested for activity in a dose titration experiment.

5′-r(CACAGUGGAGCGAAUUCCUUUGGAA)-3′ (chain 2 UUCCAAAGGAAUUCGCUCCACUGUG; siRNA; RNA, backbone not given here) [hEGFR-25-1]
dose-dependent inhibition of hEGFR production: inhibited hEGFR expression in a dose-dependent manner; also recorded: dose-dependent inhibition

5′-r(CGCAAAGUGUGUAACGGAAUAGGUA)-3′ (chain 2 UACCUAUUCCGUUACACACUUUGCG; siRNA; RNA, backbone not given here) [hEGFR-25-2]
dose-dependent inhibition of hEGFR production: inhibited hEGFR expression in a dose-dependent manner; also recorded: dose-dependent inhibition

— patent US20110046067A1, “COMPOSITIONS COMPRISING HUMAN EGFR-siRNA AND METHODS OF USE” (Intradigm Corporation, priority 2007, published 2011)
